Earlier results as cited in paper PMC8371712 (ACS chemical biology, 2021).

Experiments:
[1] = system: release of dopamine in the corpus striatum; conditions: no reference given
alanine aminotransferase = conditions: margin of safety statement; no reference given
[2] = system: aspartate aminotransferase; conditions: margin of safety statement; no reference given
[3] = system: various microsomal cytochrome P450 enzymes; conditions: margin of safety statement; no reference given
[4] = system: hERG potassium ion channel; conditions: margin of safety statement; no reference given
[5] = no reference given
[6] = system: Cerep SpectrumScreen panel of 176 pharmacological targets

For N[C@H]1C=C(C(=O)O)CC1=C(F)F [OV329, (S)-3-amino-(difluoromethylenyl)cyclopent-1-ene-1-carboxylic acid], the “release of dopamine in the corpus striatum” value [1] is given as “blocks the release of dopamine”, the “activity against alanine aminotransferase” value (alanine aminotransferase) is given as “lack of activity” and the “activity against aspartate aminotransferase” value [2] is given as “lack of activity”. The “activity against microsomal cytochrome P450 enzymes” value [3] was “lack of activity”, the “activity against hERG potassium ion channel” value [4] was “lack of activity” and the Ames test [5] was “negative”. The “activity in Cerep SpectrumScreen panel” value [6] was “lack of activity”.
